This is an account of results in patent publication US6833358B1, “Lacrimal secretion promoters or eye drops for treating keratoconjunctival failure containing as the active ingredient natriuretic peptides” (Santen Pharmaceutical Co., Ltd., priority 1998, dated 2004).

No end group written: not given here.

For this assay, the system named is Male Japanese white rabbits. In words: Schirmer test paper method: amount of lacrimal fluid after instillation. It is filed as in vivo, rabbit. Here is the method: The Schirmer test paper method, which is used for measurement of an amount of a human lacrimal fluid, is one method of measuring a change in an amount of a lacrimal fluid of a normal animal in instilling a drug. In the present invention, an amount of a lacrimal fluid in instilling the natriuretic peptide was measured by using the Schirmer test paper method, and an effect of the natriuretic peptide on a rate of lacrimal secretion was studied.
Male Japanese white rabbits, body weight; 1.8 to 2.2 kg, were used for the experiment.
The natriuretic peptide (0.56 mg) was dissolved in sterile purified water to prepare a 0.1% solution just before using. This solution is referred to as a solution of a test drug.
The solution of the test drug (50 μl) was instilled into a left eye once. […]
Amounts of the lacrimal fluid were measured using Schirmer test paper with respect to the eye to which the drug was administered and the eye to which no drug was administered before administering the drug and after a prescribed period of time from the instillation. […] One minute later, length of a wet portion (Schirmer value, mm) of the test paper was measured from the fold. […]
The action of the solution of the test drug on the rate of the lacrimal secretion at a time of T hours after the instillation is represented by the increment of the lacrimal fluid (mm) determined by the following equation. […]

As to “Human CNP-22: C-type natriuretic peptide (human) consisting of 22 amino acids; purchased from Peptide Research Institute (GLSKGCFGLKLDRIGSMSGLGC; ends and bridges not checked; cysteine pairing not given here; UniProt P23582 105-126, looked up)”, where the note is “one hour after administering drug, 0.1% solution, 50 μl instilled once into left eye, vehicle-corrected Schirmer value, average of six samples per group”, the “Increment of lacrimal fluid (mm)” value was “+1.33 mm”. Besides, the “effect of promoting the lacrimal secretion” value (rabbits, instillation, result in words) is “excellent effects of promoting the lacrimal secretion”.
